Test systems include SNB-78; IGROV-1; OVCAR-3; UACC-257; UO-31; KM-20L2; XF498; SK-OV-3; NCI-H460; HCT-116; CCRF-CEM; SF-539; K562; KM12; U-251; SK-MEL-28; MCF7.
Holding throughout (assay): DTP human tumour cell line panel, 48 h

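96-well plates; 48 h exposure; 5 concentrations. Endpoints by linear interpolation between flanking doses. Not reached: highest tested concentration assigned. Abbreviation: GI50, concentration required for 50% inhibition of growth.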 Active and inactive are the calls of the source. No stated cut-off is given here; in the data, active = GI50 up to about 1.1 µM and inactive = higher. A value given as a limit tells only on which side of the number the result lay.

The record followed here is ChEMBL document CHEMBL1201862, “PubChem BioAssay data set” (2004).

In the case of `O=C(CCCCCCCCCCc1ccccc1)C1=C(O)CC(O)CC1=O` (configuration not stated), the GI50 (in general, the concentration that inhibits growth by half) in the assay with SNB-78 is > 100 µM (inactive); with IGROV-1, 72.4 µM (inactive); in the assay on OVCAR-3, 52.6 µM (inactive); with UACC-257, 63.1 µM (inactive); in the assay on UO-31, 60.5 µM (inactive); in the assay with KM-20L2, 55 µM (inactive). Further, the GI50 was > 100 µM (inactive) in the assay on XF498; > 100 µM (inactive) in the assay with SK-OV-3; 46.3 µM (inactive) with NCI-H460; 43.3 µM (inactive) with HCT-116; 45.1 µM (inactive) in the assay with CCRF-CEM; 86.7 µM (inactive) in the assay with SF-539. Also, the GI50 in the assay with K562 was 30.5 µM (inactive); in the assay on KM12, 38.4 µM (inactive); in the assay on U-251, 55.1 µM (inactive); in the assay on SK-MEL-28, 72.4 µM (inactive).

For the compound `Cc1nc2c(c(=O)[nH]1)S/C(=C(/C#N)c1nc3ccccc3[nH]1)N2c1ccccc1`, the GI50 in the assay on SNB-78 was 0.607 µM (active); in the assay with IGROV-1 it was > 100 µM (inactive); in the assay with OVCAR-3, > 100 µM (inactive); with UACC-257 it was > 100 µM (inactive); in the assay with UO-31 it was > 100 µM (inactive); in the assay with KM-20L2, > 100 µM (inactive). For the same compound, the GI50 in the assay on XF498, in the assay with SK-OV-3, in the assay with NCI-H460, in the assay with HCT-116, in the assay on CCRF-CEM and in the assay on SF-539 was > 100 µM (inactive) throughout. The GI50 with K562, in the assay with KM12, with U-251 and in the assay with SK-MEL-28 was > 100 µM (inactive) in each case.

On to `O=C(CCl)NNC1=Nc2ccc(Cl)cc2SC1`, for which the GI50 is 2.03 µM (inactive) with SNB-78; 1.95 µM (inactive) in the assay with IGROV-1; 1.78 µM (inactive) in the assay with OVCAR-3; 3.23 µM (inactive) in the assay with UACC-257; 1.86 µM (inactive) with UO-31; 4.3 µM (inactive) in the assay with KM-20L2. The GI50 was 1.85 µM (inactive) with XF498; 6.61 µM (inactive) in the assay with SK-OV-3; 6.79 µM (inactive) with NCI-H460; 1.64 µM (inactive) in the assay with HCT-116; 0.612 µM (active) in the assay on CCRF-CEM; 2.02 µM (inactive) with SF-539. Besides, the GI50 is 1.87 µM (inactive) with K562; 5.02 µM (inactive) in the assay on KM12; 2.15 µM (inactive) in the assay on U-251; 2.03 µM (inactive) in the assay with SK-MEL-28; 3.01 µM (inactive) in the assay with MCF7.

With `CSc1nc2c(ncn2C2OCC(O)C(O)C2O)c(=O)[nH]1` (configuration not stated), the GI50 in the assay on SNB-78, in the assay with IGROV-1, in the assay with OVCAR-3, with UACC-257, in the assay on UO-31 and in the assay with KM-20L2 was > 100 µM (inactive) each time. Also, the GI50 with XF498, in the assay with SK-OV-3, in the assay on NCI-H460, in the assay with HCT-116, with CCRF-CEM and with SF-539 was > 100 µM (inactive) each time. Besides, the GI50 with K562, in the assay with KM12, in the assay with U-251, in the assay with SK-MEL-28 and with MCF7 was > 100 µM (inactive) throughout.

For `CN/N=C(\C(=O)Nc1ccc(C)c(C)c1)C(C(=O)OC)c1nc2ccc([N+](=O)[O-])cc2nc1O` (configuration not stated), the GI50 in the assay with SNB-78, in the assay on IGROV-1, in the assay on UACC-257, in the assay with UO-31, in the assay with KM-20L2 and in the assay on XF498 was > 100 µM (inactive) each time. The GI50 in the assay on SK-OV-3, in the assay on NCI-H460, in the assay on HCT-116, in the assay on CCRF-CEM, with SF-539 and in the assay with K562 was > 100 µM (inactive) in each case. Further, the GI50 in the assay with KM12 was 94.4 µM (inactive); with U-251, > 100 µM (inactive); in the assay on SK-MEL-28 it was > 100 µM (inactive).

`O=c1[nH]c(=O)n(C2OC3COC2C3O)cc1F` (configuration not stated): the GI50 in the assay with SNB-78, in the assay on OVCAR-3, in the assay with UACC-257, with UO-31, in the assay with KM-20L2 and in the assay on XF498 was > 100 µM (inactive) each time. The GI50 in the assay on SK-OV-3 is 48.1 µM (inactive); with NCI-H460, > 100 µM (inactive); with CCRF-CEM, > 100 µM (inactive); with K562, > 100 µM (inactive); in the assay with KM12, > 100 µM (inactive); with U-251, > 100 µM (inactive). Further, the GI50 in the assay on SK-MEL-28 is > 100 µM (inactive).

Consider `CCCCCn1cc2c3c(cccc31)C1C=C(C)CN(C)[C@@H]1C2.Cc1ccc(C(=O)OC(C(=O)O)C(OC(=O)c2ccc(C)cc2)C(=O)O)cc1` (configuration not stated), for which the GI50 in the assay on SNB-78 was 13.7 µM (inactive); with IGROV-1, 8.22 µM (inactive); in the assay with OVCAR-3 it was 6.75 µM (inactive); in the assay with UACC-257, 4.21 µM (inactive); with UO-31, 3.86 µM (inactive); with KM-20L2, 3.83 µM (inactive). The GI50 is 2.67 µM (inactive) in the assay with XF498; 9.93 µM (inactive) in the assay with SK-OV-3; 3.89 µM (inactive) in the assay on NCI-H460; 4.04 µM (inactive) in the assay on HCT-116; 4.25 µM (inactive) with CCRF-CEM; 9.95 µM (inactive) in the assay on SF-539. In addition, the GI50 in the assay on K562 was 2.51 µM (inactive); with KM12, 5.92 µM (inactive); in the assay on U-251, 7.13 µM (inactive); in the assay on SK-MEL-28 it was 6.93 µM (inactive); with MCF7, 4.03 µM (inactive).

Regarding `N#C/C(=C\c1ccncc1)c1csc2ccccc12`, the GI50 with SNB-78 is 23.8 µM (inactive); in the assay with IGROV-1, 28 µM (inactive); in the assay with OVCAR-3, 21.3 µM (inactive); in the assay on UACC-257, 23.7 µM (inactive); with UO-31, 24.9 µM (inactive); in the assay on KM-20L2, 20 µM (inactive). The GI50 is 22.3 µM (inactive) in the assay on XF498; 34.8 µM (inactive) in the assay with SK-OV-3; 24.9 µM (inactive) in the assay with NCI-H460; 16.6 µM (inactive) with HCT-116; 20.4 µM (inactive) in the assay with CCRF-CEM; 21.4 µM (inactive) with SF-539. For the same compound, the GI50 with K562 was 20.2 µM (inactive); with KM12, 18.5 µM (inactive); in the assay with U-251, 23.5 µM (inactive); in the assay with SK-MEL-28, 34.1 µM (inactive); in the assay on MCF7 it was 25 µM (inactive).

On to `Cc1ccc2[nH]c3c(C)c4ccncc4c(C)c3c2c1`, for which the GI50 in the assay on SNB-78 is 1.73 µM (inactive); with IGROV-1, 0.944 µM (active); in the assay on OVCAR-3 it was 1.12 µM (active); in the assay on UACC-257 it was 1.41 µM (inactive); in the assay with UO-31, 1.58 µM (inactive); with KM-20L2, 0.815 µM (active). The GI50 in the assay with XF498 was 1.6 µM (inactive); with SK-OV-3, 2.23 µM (inactive); with NCI-H460 it was 0.456 µM (active); with HCT-116 it was 0.322 µM (active); in the assay on CCRF-CEM, 0.242 µM (active); with SF-539 it was 1.33 µM (inactive). Moreover, the GI50 in the assay on K562 was 0.519 µM (active); in the assay on KM12 it was 0.614 µM (active); in the assay with U-251 it was 1.16 µM (inactive); with SK-MEL-28, 1.55 µM (inactive); in the assay on MCF7 it was 0.908 µM (active).

`COc1cc(C2C(Cl)C(=O)N2NC(=O)c2ccccc2O)ccc1O` (configuration not stated): the GI50 in the assay on SNB-78, with IGROV-1, in the assay with OVCAR-3, in the assay with UACC-257, with UO-31 and in the assay on XF498 was > 100 µM (inactive) in each case. Besides, the GI50 with SK-OV-3, in the assay with NCI-H460, in the assay on HCT-116, with CCRF-CEM, in the assay on SF-539 and in the assay with K562 was > 100 µM (inactive) throughout. Further, the GI50 in the assay on KM12, in the assay on U-251 and in the assay on SK-MEL-28 was > 100 µM (inactive) in each case.

For the compound `C/C=C1/C(=O)O[C@]23C=C[C@@H]4C(C(=O)OC)=CO[C@H](O[C@@H]12)[C@@H]43` [PLUMERICIN], the GI50 with SNB-78 was 1.94 µM (inactive); with IGROV-1 it was 1.19 µM (inactive); with OVCAR-3, 0.861 µM (active); in the assay on UACC-257, 0.592 µM (active); in the assay on UO-31, 3.12 µM (inactive); with KM-20L2, 2.17 µM (inactive). Besides, the GI50 is 1.38 µM (inactive) with XF498; 3.93 µM (inactive) in the assay with SK-OV-3; 2.08 µM (inactive) in the assay with NCI-H460; 0.451 µM (active) with HCT-116; 0.341 µM (active) in the assay on CCRF-CEM; 2.34 µM (inactive) with SF-539. In addition, the GI50 in the assay on K562 is 0.652 µM (active); in the assay with KM12, 2.28 µM (inactive); in the assay on U-251, 2.7 µM (inactive); in the assay with SK-MEL-28, 1 µM (active); in the assay on MCF7, 0.832 µM (active).
